From BindingDB's records for PubMed 8035312 (University of California, 1994)
Several values for one entry are separate records, joined by “and”; a condition that tells them apart may be missing. Equal entries are not always repeated.

molecular target: Nicotinic acetylcholine receptor (Rattus leucopus, UniProt Q62594)
Sequence (Q62594 whole entry): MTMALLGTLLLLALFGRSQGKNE

| SMILES | Ki |
| --- | --- |
| CNC(=O)OCC[N+](C)(C)C [CAS_14721-69-8] | 5.2 nM |
| C=C(C=O)C[C@H]1C[C@H](O)[C@]2(C)O[C@@H]3C[C@@H]4O[C@@H]5C[C@]6(C)O[C@]7(C)CC[C@@H]8O[C@@H]9C[C@]%10(C)O[C@@H]%11C(C)=CC(=O)O[C@H]%11C[C@H]%10O[C@H]9C[C@@H](C)[C@H]8O[C@H]7C[C@H]6O[C@@]5(C)C/C=C\[C@H]4O[C@H]3C[C@H]2O1 | > 10000 nM and 1000 nM |
| COc1cc2c3cc1Oc1cc(ccc1O)C[C@@H]1c4c(cc(OC)c(O)c4Oc4ccc(cc4)C[C@@H]3N(C)CC2)CC[N+]1(C)C [Tubocurarine,d] | 1000 nM and 282 nM |
| C[N+](C)(C)CCCCCC[N+](C)(C)C [Hexamethoniumdibromide] | > 10000 nM |
| O=C1N(Cc2ccccc2)C2C[S+]3CCCC3C2N1Cc1ccccc1 (stereo unspecified) [NSC_441310] | > 10000 nM |
| CN1[C@@H](C[C@@H](O)c2ccccc2)CCC[C@H]1CC(=O)c1ccccc1 [Lobeline] | 15.5 nM |
